Consider 1 compound from patent publication US11974990B2, “TXNIP-TRX complex inhibitors and methods of using the same” (City of Hope, priority 2018, dated 2024).

“Also recorded” adds a separate entry of the source.

For test [1], the target named is T1, TXNIP-TRX complex (Homo sapiens, UniProt Q9H3M7).
T1 construct: Co-immunoprecipitation (Co-IP) of TXNIP with TRX in THP 1 monocytes cells treated with compounds under high glucose condition; endogenous in cells; host or cells: THP1 human monocytes cultured in 25 mM glucose
T1 sequence (Q9H3M7 1-391): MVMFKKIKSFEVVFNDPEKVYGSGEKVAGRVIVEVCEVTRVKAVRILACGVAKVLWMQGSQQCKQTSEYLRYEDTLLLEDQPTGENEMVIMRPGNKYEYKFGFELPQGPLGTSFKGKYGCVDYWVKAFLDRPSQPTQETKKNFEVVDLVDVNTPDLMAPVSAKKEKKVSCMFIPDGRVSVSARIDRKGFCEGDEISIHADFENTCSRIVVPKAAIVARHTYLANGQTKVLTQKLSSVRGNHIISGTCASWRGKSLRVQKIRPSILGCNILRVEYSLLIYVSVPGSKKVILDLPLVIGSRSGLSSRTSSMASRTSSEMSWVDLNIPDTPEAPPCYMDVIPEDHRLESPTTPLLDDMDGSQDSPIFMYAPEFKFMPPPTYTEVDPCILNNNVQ
The test can be described thus: Co-IP using extracts from high glucose treated THP1 cells in the presence of compounds. It counts as biochemical. The note with it: extracts of THP1 cells treated with 25 mM glucose 3 days; compounds added to extract (5 uM). As for the experimental part: Assay 2: Co-IP using extracts from THP 1 cells treated high glucose and in the presence of compounds. In this assay, TXNIP is already highly expressed (because the cells are treated with HG), we assume there is high concentration of TXNIP/TRX complexes in the cell extract. Co-IPs were done in these extracts through adding TRX antibody and compounds. If a compound is able to break the (pre-formed) TXNIP/TRX complex, there will be a reduced signal (band intensity) in the assay.
Co-IP with THP1 high glucose treated extract in the presence of the compounds. THP1 cells were treated with 25 mM glucose for 3 days, the cell extract were prepared. Them 300 ul extract were used for TP. Compounds were added to 5 uM Co-IP were followed according to the Co-IP protocol.
(§1) 1. Transfer the cultured cells from the culture dish to a 15-mL conical tube. 2. Centrifuge at 500×g for 2 min at 4° C. and remove the supernatant. 3. Wash with ice-cold PBS and centrifuge at 500×g for 2 min at 4° C. Remove the supernatant. 4. Repeat Step 3 twice.
5. Resuspend the cell pellet in ice-cold cell lysis buffer (1 mL per 1×10^7 cells) and incubate on ice for 10 min. 6. […]
(§2) Note: Pre-clearing the lysate is recommended to reduce the non-specific binding. However, if the protein is detected by western blotting, pre-clearing may not be necessary unless a contaminating protein is interfering with visualization of the protein of interest. […]

Test [2] has as its target T1, TXNIP-TRX complex. The test can be described thus: Co-IP of TXNIP with TRX in THP1 monocytes treated with compounds under high glucose. It counts as cell-based. As to the method:
FIGS. 4A-4B. Co-IP with anti-TRX in THP 1 cells treated with compounds under high glucose condition. THP1 cells were treated by 10 uM compounds over night, then glucose was added up to 25 mM. The cells were cultured for 72-96 h. Cell extracts were prepared using cell extract buffer (Thermo Fisher Scientific) and Co-IP were performed with mouse anti-TRX (abcam).
Assay 1: Co-immunoprecipitation (Co-IP) of TXNIP with TRX in THP 1 monocytes cells treated with compounds under high glucose condition. In this assay, we looked for compounds that can interfere with the interaction between TXNIP and TRX in THP-1 monocytes treated with HG. So here compounds are added to cells in culture. […] So we picked the candidates only if the results are repeatable.
Co-IP with compounds treated THP1 under high glucose condition. THP1 cells were treated with compounds (2.5 uM) overnight and glucose was add to 25 mM and culture for 3-5 days, then coIP were carried using co-IP protocol.
as §1
5. Resuspend the cell pellet in ice-cold cell lysis buffer (1 mL per 1×10^7 cells) and incubate on ice for 10 min. 6. Sonicate cells in ice bath three times for 5 second pulses each. 7. Centrifuge at 13,000×g at 4° C. for 10 min, and transfer the supernatant to a fresh tube. Store the tube on ice for further use, or for long storage at −80° C.
8. Resuspend the magnetic beads by pipetting up and down for several times. 9. Transfer 20 μL of bead slurry to a fresh tube. Place the tube in a magnetic separation rack […]. Carefully remove the supernatant once the solution is clear. 10. […]
as §2

For `CC(C)C(C(=O)O)N1C(=O)c2ccncc2C1=O` (stereo not drawn) [Compound C1, 2-(1,3-dioxo-1,3-dihydro-2H-pyrrolo[3,4-c]pyridin-2-yl)-3-methylbutanoic acid], the “effect on pre-formed TXNIP/TRX complex (co-IP band intensity)” value at TXNIP-TRX complex [1] is given as “inhibit high glucose-induced TXNIP-TRX co-immunoprecipitation in cell extracts; also recorded: reproducibly can affect TXNIP/TRX complex”. For the same compound, at TXNIP-TRX complex [2] (THP1, 25 mM glucose, 5 uM C1, 16-72 h time course, nuclear cell extracts), the “TXNIP association/interaction with TRX (co-IP, blot with TXNIP antibody)” value is on record as “Inhibition of TXNIP-TRX interaction; also recorded: significantly reduced at 48 h”. Also, the “HG-induced TXNIP-TRX co-IP band intensity” value at TXNIP-TRX complex [2] (THP1 cells, compounds added to cells in culture overnight, glucose to 25 mM, 72-96 h, anti-TRX IP) is on record as “inhibit high glucose-induced TXNIP-TRX co-immunoprecipitation; also recorded: reproducibly shows a reduction in the HG-induced band”.
